Experiment [1] relates to SN12C-shVHL RNAi and ACHN-shVHL RNAi xenograft tumors. Kind of experiment: Subcutaneous xenograft tumor growth, VHL knockdown tumors. Type of experiment: in vivo, SCID mice. The conditions noted are these: 0.1 mg/kg CCI-779 daily. As for the experimental part: (§1) FIGS. 1A-1E. Effects of VHL knockdown on sensitivity to CCI-779. (a) Immunoblotting of lysates derived from shRNA and control (empty vector, V) in SN12C, using antibodies against VHL (both isoforms detected), HIF-1α, HIF-2α, GLUT-1, CA-IX and β-Actin (as a loading control). (b) SN12C-CSCG and SN12C-VHLshRNA cells (1×10^5) were cultured in 10% serum rich media, in the presence of vehicle, 1 or 10 nM of CCI-779 for 5 days. Cell growth was measured by cell counts (n=3). […] (c) SN12C-CSCG (C1) and SN12C-CSCG shVHL RNA (C2) cells were injected into SCID mice at a dose of 1×10^6 cells per mouse (n=30). […] Phosphorylated-S6 protein in SN12C-CSCG and SN12C-VHL shRNA xenograft tumors treated with vehicle or 0.1 mg/kg of CCI-779 was measured by immunoblot C3 and C4). […]
(§2) For in vitro experiments, cells (5×10^4) were plated and treated with 1 and 10 nM CCI-779 (kind gift of J. Gibbons, Wyeth) or vehicle (ethanol). On day 5-post treatment, cells were trypsinized, resuspended in DMEM with 10% FBS and counted using the VI CELL counter (Beckman Coulter), according to the manufacturer's instructions. […] In vivo tumorigenicity was measured by injection of 5×10^5 SN12C-CSCG, ACHN-CSCG, SN12C-CSCG-VHLshRNAi, ACHN-CSCG-VHLshRNAi, SN12C-CSCG-VHLshRNAi-pBABE, SN12C-CSCG-VHLshRNAi-pBABE-HA-HIF-2α (P405A; P531A) cells in 100 μl of Matrigel (Collaborative Biomedical) subcutaneously into the flanks of SCID mice. […]

The subject of experiment [2] is SN12C-CSCG cells. As to the kind of experiment: In vitro growth (cell counts), parental empty-vector cells. The conditions noted are these: 1 and 10 nM CCI-779, day 5, 10% serum; b106 at 10 nM. Format: cell-based, human. How it is done:
as §1, §2

Experiment [3] concerns ACHN-CSCG cells. The description is as above. Type of experiment: cell-based, human. The note with it: 10 nM CCI-779, day 5. How it is done: as §1, §2

One compound from patent US9261498B2, “Biomarker for sensitivity to mTOR inhibitor therapy in kidney cancer” (The Regents of the University of California, priority 2005, dated 2016) can be followed below.

SMILES strings stand for the structures. “Also recorded” adds a separate entry of the source.

In the case of `CO[C@H]1C[C@@H]2CC[C@@H](C)[C@@](O)(O2)C(=O)C(=O)N2CCCC[C@H]2C(=O)O[C@H]([C@H](C)C[C@@H]2CC[C@@H](OC(=O)C(C)(CO)CO)[C@H](OC)C2)CC(=O)[C@H](C)/C=C(\C)[C@@H](O)[C@@H](OC)C(=O)[C@H](C)C[C@H](C)/C=C/C=C/C=C/1C` [CCI-779], the “growth of the VHL shRNAi tumors” value in experiment [1] is “completely blocked the growth”. The cell growth entry in experiment [2] is “not affected; also recorded: not sensitive”; in experiment [3], “not affected”.
